Paper PMC9822066 (Molecules, 2022)
Counter-ions that a name gives are not always drawn. Like-named read-outs stand apart in the source and are kept apart here.

Experiments:
hMAO B = biological target: T1, hMAO B (Homo sapiens, UniProt P27338); experiment: Fluorometric MAO assay, hMAO B inhibition; format: biochemical; conditions: mean ± SEM of two independent experiments, read-out: hMAO B %Inh. at 1 µM
T1 sequence (P27338 1-520): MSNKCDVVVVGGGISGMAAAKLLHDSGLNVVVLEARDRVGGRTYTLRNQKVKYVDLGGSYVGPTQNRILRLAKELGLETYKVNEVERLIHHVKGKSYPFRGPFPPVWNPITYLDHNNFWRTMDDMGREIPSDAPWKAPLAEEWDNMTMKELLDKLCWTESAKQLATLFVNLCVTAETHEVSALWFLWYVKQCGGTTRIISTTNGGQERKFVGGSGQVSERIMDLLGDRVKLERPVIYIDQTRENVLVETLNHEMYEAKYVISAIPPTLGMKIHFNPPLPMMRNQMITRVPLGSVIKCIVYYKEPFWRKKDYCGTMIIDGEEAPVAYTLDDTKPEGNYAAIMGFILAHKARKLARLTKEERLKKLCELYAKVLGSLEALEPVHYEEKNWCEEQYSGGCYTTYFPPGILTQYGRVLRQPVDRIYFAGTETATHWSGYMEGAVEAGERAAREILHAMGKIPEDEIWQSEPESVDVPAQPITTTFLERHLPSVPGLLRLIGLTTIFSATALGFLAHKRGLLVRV

[1] = biological target: BuChE from equine serum (eqBuChE) (Equus caballus, UniProt P81908); experiment: biochemical; format: biochemical; conditions: for IC50: mean ± SEM, triplicate independent experiments
Sequence of BuChE from equine serum (eqBuChE) (P81908 whole entry): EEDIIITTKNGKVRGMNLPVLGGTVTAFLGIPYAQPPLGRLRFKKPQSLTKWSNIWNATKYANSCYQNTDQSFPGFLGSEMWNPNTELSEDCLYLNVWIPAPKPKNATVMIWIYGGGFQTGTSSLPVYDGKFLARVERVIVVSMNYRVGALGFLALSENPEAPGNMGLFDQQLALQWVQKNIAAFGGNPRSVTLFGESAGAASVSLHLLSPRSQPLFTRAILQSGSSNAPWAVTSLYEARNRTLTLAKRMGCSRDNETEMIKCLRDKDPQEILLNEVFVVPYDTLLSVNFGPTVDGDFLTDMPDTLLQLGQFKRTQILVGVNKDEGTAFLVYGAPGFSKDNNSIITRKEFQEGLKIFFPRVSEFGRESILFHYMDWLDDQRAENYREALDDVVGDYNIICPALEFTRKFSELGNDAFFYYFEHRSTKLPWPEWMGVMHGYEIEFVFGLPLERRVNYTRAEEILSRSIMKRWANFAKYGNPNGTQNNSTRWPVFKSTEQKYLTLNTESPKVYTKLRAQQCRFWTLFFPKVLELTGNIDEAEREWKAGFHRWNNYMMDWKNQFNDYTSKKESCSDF

human H3R = biological target: T2, human H3R (Homo sapiens, UniProt Q9Y5N1); experiment: [3H]Nα-methylhistamine radioligand binding assay in HEK293 cells stably expressing hH3R
T2 construct: expressed in transfected cells; host or cells: HEK293
T2 sequence (Q9Y5N1 whole entry): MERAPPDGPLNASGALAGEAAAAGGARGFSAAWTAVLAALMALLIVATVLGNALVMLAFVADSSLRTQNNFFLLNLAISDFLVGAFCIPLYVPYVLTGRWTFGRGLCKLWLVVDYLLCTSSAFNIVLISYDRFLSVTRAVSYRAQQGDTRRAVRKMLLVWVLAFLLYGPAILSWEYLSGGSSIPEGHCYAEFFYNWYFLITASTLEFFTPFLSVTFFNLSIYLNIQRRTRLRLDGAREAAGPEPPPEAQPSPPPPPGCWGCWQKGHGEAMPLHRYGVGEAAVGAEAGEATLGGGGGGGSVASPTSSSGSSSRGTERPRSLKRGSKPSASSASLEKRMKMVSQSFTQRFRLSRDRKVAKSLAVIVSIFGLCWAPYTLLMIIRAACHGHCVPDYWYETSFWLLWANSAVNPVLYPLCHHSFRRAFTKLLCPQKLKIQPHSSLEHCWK
Procedure: Final compounds were tested for their H3R affinity in a radioligand binding assay using [^3H]N^α-methylhistamine as radioligand in HEK293 cells stably expressing hH3R [25]. […] Affinity to hH3R stably expressed in HEK293 cells was evaluated in a radioligand binding assay as described previously. […] The radioactivity was counted in a MicroBeta Trilux counter (PerkinElmer). Data were fitted to a one-site curve-fitting equation with Prism 6 (GraphPad Software, San Diego, CA, USA) and Ki values were calculated from IC50 values (from at least three experiments performed in duplicates) according to the Cheng−Prusoff equation [52].

[2] = biological target: T3, electric eel AChE (eeAChE) (Electrophorus electricus, UniProt O42275); experiment: biochemical; conditions: for inhibition at 10 µM: read-out: eeAChE % Inh. at 10 µM; for IC50: mean ± SEM, triplicate independent experiments, read-out: eeAChE IC50
T3 construct: purchased Sigma–Aldrich (Steinheim, Germany)
T3 sequence (O42275 24-633): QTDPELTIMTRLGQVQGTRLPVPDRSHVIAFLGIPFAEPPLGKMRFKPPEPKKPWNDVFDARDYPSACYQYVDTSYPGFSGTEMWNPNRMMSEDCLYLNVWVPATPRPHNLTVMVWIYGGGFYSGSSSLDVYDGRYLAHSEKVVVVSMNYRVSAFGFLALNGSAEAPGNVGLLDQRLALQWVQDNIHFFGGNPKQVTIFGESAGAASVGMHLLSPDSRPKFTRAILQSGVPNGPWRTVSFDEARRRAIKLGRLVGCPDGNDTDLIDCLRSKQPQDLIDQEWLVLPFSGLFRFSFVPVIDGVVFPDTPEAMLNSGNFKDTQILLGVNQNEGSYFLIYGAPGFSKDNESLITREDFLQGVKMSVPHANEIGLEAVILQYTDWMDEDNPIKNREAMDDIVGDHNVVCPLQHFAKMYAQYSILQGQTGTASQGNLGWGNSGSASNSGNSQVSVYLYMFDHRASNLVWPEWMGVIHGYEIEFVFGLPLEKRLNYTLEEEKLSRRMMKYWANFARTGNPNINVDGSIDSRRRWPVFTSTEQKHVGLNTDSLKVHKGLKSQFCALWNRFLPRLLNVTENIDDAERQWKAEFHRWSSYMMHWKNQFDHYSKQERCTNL

[3] = mean value within the 95% CI, three repetitions, read-out: hH3R Ki

Structure (SMILES)	inhibition at 1 µM (hMAO B) [%]	selectivity eqBuChE versus eeAChE [1]	IC50 [1] [nM]	Ki (human H3R) [nM]	inhibition at 10 µM [2] [%]	IC50 [2] [nM]	Ki (human H3R; [3]) [nM]
CC1CCCN(CCCCCCOc2ccccc2C(=O)c2ccccc2)C1.O=C(O)C(=O)O (stereo not drawn) [Compound 17, (2-((6-(3-Methylpiperidin-1-yl)hexyl)oxy)phenyl)(phenyl)methanone hydrogen oxalate]	8	selective eqBuChE inhibitors	2500 ± 28	152	20	–	–
O=C(c1ccc(Cl)cc1)c1ccc(OCCCCCN2CCCCCC2)cc1 [Compound 29, (4-Chlorophenyl)(4-(5-(azepan-1-yl)pentyloxy)phenyl)methanone hydrogen oxalate]	26	–	676 ± 3	66	–	2240 ± 35	–
CC1CCN(CCCCCOc2cccc(C(=O)c3ccccc3)c2)CC1 [Compound 22, (3-((5-(4-Methylpiperidin-1-yl)pentyl)oxy)phenyl)(phenyl)methanone hydrogen oxalate]	32	–	1700 ± 46	298	–	4450 ± 94	–
CC1CCCN(CCCCCOc2ccccc2C(=O)c2ccccc2)C1.O=C(O)C(=O)O (stereo not drawn) [Compound 12, (2-((5-(3-Methylpiperidin-1-yl)pentyl)oxy)phenyl)(phenyl)methanone hydrogen oxalate]	9	selective eqBuChE inhibitors	1610 ± 61	208	16	–	–
O=C(O)C(=O)O.O=C(c1ccccc1)c1ccccc1OCCCCCN1CCCCC1 [Compound 2, Phenyl (2-((5-(piperidin-1-yl)pentyl)oxy)phenyl)methanone hydrogen oxalate]	23	selective eqBuChE inhibitors	1610 ± 60	371	22	–	–
CC1CCCN(CCCCCOc2ccc(C(=O)c3ccc(F)cc3)cc2)C1 (stereo not drawn) [Compound 16, (4-Fluorophenyl) (4-((5-(3-methylpiperidin-1-yl)pentyl)oxy)phenyl)methanone hydrogen oxalate]	20	–	311 ± 6	12	–	2023 ± 6	–
O=C(c1ccc(F)cc1)c1ccc(OCCCCCN2CCCCCC2)cc1 [Compound 30, (4-Fluorophenyl) (4-((5-(azepan-1-yl)pentyl)oxy)phenyl)methanone hydrogen oxalate]	30	–	224 ± 3	13	–	1110 ± 3	–
CC1CCCN(CCCCCOc2ccc(C(=O)c3ccc(Cl)cc3)cc2)C1 (stereo not drawn) [Compound 15, (4-Chlorophenyl) (4-((5-(3-methylpiperin-1-yl)pentyl)oxy)phenyl)methanone hydrogen oxalate]	19	–	2560 ± 50	–	–	2650 ± 87	37
CC1CCN(CCCCCCOc2cccc(C(=O)c3ccccc3)c2)CC1 [Compound 24, (3-((6-(4-Methylpiperidin-1-yl)hexyl)oxy)phenyl)(phenyl)methanone hydrogen oxalate]	20	–	1060 ± 43	106	–	2460 ± 70	–
CC1CCCN(CCCCCCOc2ccc(C(=O)c3ccc(F)cc3)cc2)C1 (stereo not drawn) [Compound 21, (4-Fluorophenyl) (4-(6-(3-methylpiperin-1-yl)hexyloxy)phenyl)methanone hydrogen oxalate]	23	–	2560 ± 40	–	–	2000 ± 46	75
CC1CCCN(CCCCCCOc2ccc(C(=O)c3ccc(Cl)cc3)cc2)C1 (stereo not drawn) [Compound 20, (4-Chlorophenyl) (4-((6-(3-methylpiperin-1-yl)hexyl)oxy)phenyl)methanone hydrogen oxalate]	17	–	2520 ± 31	–	–	2740 ± 98	44
O=C(c1ccccc1)c1cccc(OCCCCCN2CCCCCC2)c1 [Compound 27, (3-((5-(Azepan-1-yl)pentyl)oxy)phenyl)(phenyl)methanone hydrogen oxalate]	14	–	901 ± 10	307	–	3660 ± 92	–
CC1CCN(CCCCCOc2ccc(C(=O)c3ccccc3)cc2)CC1 [Compound 23, (4-((5-(4-Methylpiperidin-1-yl)pentyl)oxy)phenyl)(phenyl)methanone hydrogen oxalate]	27	–	1570 ± 35	67	–	2600 ± 72	–
O=C(O)C(=O)O.O=C(c1ccccc1)c1ccccc1OCCCCCCN1CCCCC1 [Compound 7, (2-((6-(Piperidin-1-yl)hexyl)oxy)phenyl)(phenyl)methanone hydrogen oxalate]	12	selective eqBuChE inhibitors	2110 ± 32	161	3	–	–
O=C(c1ccccc1)c1ccc(OCCCCCN2CCCCC2)cc1 [Compound 4, Phenyl (4-((5-(piperidin-1-yl)pentyl)oxy)phenyl)methanone hydrogen oxalate]	44	–	2480 ± 40	–	41	–	–
CC1CCN(CCCCCCOc2ccc(C(=O)c3ccccc3)cc2)CC1 [Compound 25, (4-((6-(4-Methylpiperidin-1-yl)hexyl)oxy)phenyl)(phenyl)methanone hydrogen oxalate]	22	–	1560 ± 50	53	–	2690 ± 47	–
O=C(O)C(=O)O.O=C(c1ccccc1)c1ccccc1OCCCCCCN1CCCCCC1 [Compound 31, (2-((6-(Azepan-1-yl)hexyl)oxy)phenyl)(phenyl)methanone hydrogen oxalate]	5	selective eqBuChE inhibitors	317 ± 3	162	11	–	–
O=C(c1ccc(F)cc1)c1ccc(OCCCCCCN2CCCCCC2)cc1 [Compound 35, (4-((6-(Azepan-1-yl)hexyl)oxy)phenyl)(4-fluorophenyl)methanone hydrogen oxalate]	24	–	161 ± 4	35	–	1654 ± 4	–
O=C(c1ccc(Cl)cc1)c1ccc(OCCCCCCN2CCCCCC2)cc1 [Compound 34, (4-Chlorophenyl)(4-((6-(azepan-1-yl)hexyl)oxy)phenyl)methanone hydrogen oxalate]	30	–	867 ± 2	133	–	2033 ± 18	–
O=C(c1ccc(F)cc1)c1ccc(OCCCCCCN2CCCCC2)cc1 [Compound 11, (4-Fluorophenyl) (4-((6-(piperidin-1-yl)hexyl)oxy)phenyl)methanone hydrogen oxalate]	28	–	419 ± 2	26	–	3098 ± 9	–
O=C(c1ccc(Cl)cc1)c1ccc(OCCCCCCN2CCCCC2)cc1 [Compound 10, (4-Chlorophenyl) (4-((6-(piperidin-1-yl)hexyl)oxy)phenyl)methanone hydrogen oxalate]	39	–	2460 ± 61	25	–	2670 ± 94	–
O=C(c1ccc(Cl)cc1)c1ccc(OCCCCCN2CCCCC2)cc1 [Compound 5, (4-Chlorophenyl) (4-((5-(piperidin-1-yl)pentyl)oxy)phenyl)methanone hydrogen oxalate]	18	–	1680 ± 17	20	–	2870 ± 71	–
Clc1ccc(CCCOCCCN2CCCCC2)cc1 [pitolisant, reference compound]	–	–	–	–	3	–	–
